Like-named read-outs stand apart in the source and are kept apart here.
Tests used:
[1] = Stability of the crystalline form when dried in oven; type: physicochemical; conditions: e.g. 40° C.
[2] = Water content of the crystalline form under extreme high humidity; type: physicochemical
Solubility = type: physicochemical
[3] = Flowability and stickiness of the solid form; type: physicochemical
[4] = prior-art solid form of WO2018218147; cited from earlier work

## CC(C)(CCCCCC(O)CCCCCC(C)(C)C(=O)O)C(=O)O [Form B, 8-Hydroxy-2,2,14,14-tetramethylpentadecanedioic acid]
[1]
  stability when dried in oven: stable
[2]; 70-90% relative humidity
  water content change when subjected to extreme high level of humidity: did not change
[2]; humidity above 70% relative humidity
  water absorption or loss when subjected to extreme conditions: does not absorb or lose water
Solubility
  solubility: good

## CC(C)(CCCCCC(O)CCCCCC(C)(C)C(=O)O)C(=O)O [Form A, 8-Hydroxy-2,2,14,14-tetramethylpentadecanedioic acid]
[3]
  flowability: good
  stickiness: not sticky

## CC(C)(CCCCCC(O)CCCCCC(C)(C)C(=O)O)C(=O)O [solid form of Bempedoic acid, 8-Hydroxy-2,2,14,14-tetramethylpentadecanedioic acid]
[4]
  flow characteristics: poor
  stickiness: very sticky
